The subject of data set [1] is J774.1a macrophage cells. As to the kind of experiment: Macrophage TNF-α production (Assay 2). Further: key: a ‘+’ indicates a positive result for desired activity; a ‘−’ indicates a negative result for desired activity. Type of data set: cell-based. As to conditions: 10 μg/mL test compound, 100 ng/mL LPS, ELISA. As for the experimental part:
Assay 2) Macrophage TNF-α production. J774.1a macrophage cells were treated with 10 μg/mL of test compound dissolved in solvent (e.g. cyclodextran) for 40 minutes prior to the addition of 100 ng/mL LPS. Culture supernatants were collected after 2 hr and 5 hr for TNF-α determination by ELISA.

Another data set relates to LNCaP cells. Briefly: PKB activation in LNCaP cells. Format: cell-based, human. As to conditions: doses up to 60 μM. As for the experimental part: The ability of AQX-016A to inhibit activation of PIP3-dependent downstream signalling proteins in SHIP^+/+ vs SHIP^−/− cells was assessed. LPS stimulation of macrophages results in PKB phosphorylation. […] Similar protein loading was confirmed by reblotting with either antibodies to PKB or Grb2. […] Thus, AQX-016A inhibits PIP3-regulated intracellular signal transduction events in SHIP expressing hematopoietic cells, but not in SHIP-deficient hematopoietic or non-hematopoietic cells.

Data set [2] deals with J774.1a macrophage cells. As to the kind of experiment: Macrophage TNF-α NO assay (Assay 3). Further: key: a ‘+’ indicates a positive result for desired activity; a ‘−’ indicates a negative result for desired activity. Format: cell-based. The conditions noted are these: 10 μg/ml test compound, LPS, 24 hr, Griess reagent. As to the method:
Assay 3) Macrophage TNF-α NO assay. J774.1a macrophage cells were treated with 10 μg/ml of test compound dissolved in solvent for 40 minutes prior to the addition of LPS. Culture supernatants were collected after 24 hr. for determination of NO concentration using the Griess reagent.

The subject of data set [3] is neutrophil myeloperoxidase (MPO) activity. Briefly: Mouse acute cutaneous anaphylaxis model (Assay 5). Type of data set: in vivo, CD1 mice. The conditions noted are these: topical on ear, DNFB. As for the experimental part: Assay 5) Mouse acute cutaneous anaphylaxis model. 6-8 week old CD1 mice
(§1) (University of British Columbia Animal Facility, Vancouver, BC) were sensitized to the hapten DNP by cutaneous application of 25 μL of 0.5% dinitrofluorobenzene (DNFB) (Sigma, Oakville, Ont) in acetone to the shaved abdomen of mice for two consecutive days. 24 hrs later, test substances (dissolved in 10 μL of 1:2 DMSO:MeOH) were painted on the right ear while the left ear received vehicle control. 30 min after drug application, DNFB was applied to both ears to induce mast cell degranulation. A 6 mm punch was taken from the ear and immediately frozen on dry ice for subsequent determination of neutrophil myeloperoxidase (MPO) activity.
as §1, with “Mouse acute cutaneous anaphylaxis model. 6-8 week old CD1 mice (University” for “(University”, “activity. Compound 100's ability to inhibit cutaneous anaphylaxis was assessed.” for “activity.”
Anaphylactic or allergic responses are mediated by allergen-induced degranulation of pre-sensitized mast cells. The mouse ear edema/cutaneous anaphylaxis model involves pre-sensitization of mice with the haptenizing agent dinitrofluorobenzene (DNFB). One week later the allergic reaction is elicited by painting DNFB onto the ears of the mice. The efficacy of potential anti-inflammatory compounds is tested by topical application of the test substance to one ear and comparing the resulting ear edema or inflammation of the two ears.

The nature of data set [4]: Initial toxicology studies. The conditions noted are these: data not shown. Type of data set: in vivo. From the text:
A novel paradigm for inhibiting PI3K signaling through activation of the phosphatases that negatively regulate this pathway is provided. SHIP is a particularly good target for immune/hematopoietic disorders because of its restricted expression to hematopoietic cells. Because the relative activity of phosphatases present in a cell will influence the efficacy of kinase inhibitors, as discussed by Knight and Shokat, SHIP agonists may also be used to potentiate the activation of PI3K inhibitors and promote tissue targeting of PI3K inhibitors to the ematopoietic/immune cell compartment.

Another data set concerns MM cell lines. As to the kind of experiment: In vitro Multiple Myeloma (MM) assay (Assay 7). Further: key: a ‘+’ indicates a positive result for desired activity; a ‘−’ indicates a negative result for desired activity. Format: cell-based. As to the method:
Assay 7) In vitro Multiple Myeloma (MM) assay. The ability of SHIP activators to reduce tumor cell survival was assessed in MM cell lines treated with the test compound. The lines OPM1, OPM2, MM.1S and RPMI 8226 were plated at a density of 1×10^5 cells/mL in 200 μL of medium with various concentrations of the test compound, and viable cell numbers were determined on day 3 and day 5 by trypan blue exclusion. The lines RPMI 8226 and U266 were plated at a density of 1×10^6 cells/mL in 250 μL of medium with various concentrations of the test compound. At day 4, the medium of each culture was replaced by fresh medium containing the same concentration of test compound. At day 7, the viable cell number of each culture was determined by trypan blue exclusion.
MM cell lines were cultured in 96 well plates seeded with 3×10^4 cells suspended in 200 μL of medium along with various concentrations of test compound (and associated cyclodextran vehicle control), with LY294002 serving as a positive control in the experiments. After 24-48 hrs of culture, […] of [3H]-thymidine (GE Healthcare, Baie D'Urfe, Canada) being added for the final 8 hours. Cells were harvested and DNA associated radioactivity was measured via liquid scintillation counting using a Wallac Microbeta counter (Perkin-Elmer; Boston, Mass.).
The ability of SHIP activators to reduce tumor cell survival was assessed in multiple myeloma (MM) cell lines treated with Compound 100 or AQX-016A. The lines OPM1, OPM2, MM.1S and RPMI 8226 were plated at a density of 1×10^5 cells/mL in 200 μL of medium with various concentrations of Compound 100, and viable cell numbers were determined on day 3 and day 5 by trypan blue exclusion. The lines RPMI 8226 and U266 were plated at a density of 1×10^6 cells/mL in 250 μL of medium with various concentrations of AQX-016A. At day 4, the medium of each culture was replaced by fresh medium containing the same concentration of AQX-016A. At day 7, the viable cell number of each culture was determined by trypan blue exclusion. Experiments were performed in triplicate.
Proliferation (DNA synthesis) assays. Proliferation was measured by measuring incorporation of [^3H]-thymidine into cells. MM cell lines were cultured in 96 well plates seeded with 3×10^4 cells suspended in 200 μL, of medium along with various concentrations of Compound 100 or AQX-016A (and associated cyclodextran vehicle control), with LY294002 serving as a positive control in the indicated experiments. After 24-48 hrs of culture, 1 μCi of [^3H]-thymidine (GE Healthcare, Baie D'Urfe, Canada) being added for the final 8 hours. Plates were frozen, which also aided in cell lysis, to terminate the experiments. Cells were then harvested onto glass fibre filters using an automatic cell harvester (TomTech; Orange, Conn.) and DNA associated radioactivity was measured via liquid scintillation counting using a Wallac Microbeta counter (Perkin-Elmer; Boston, Mass.). Wells were set up in triplicate and data is expressed as mean+/−SEM.

The test system of data set [5] is luciferase expressing OPM2 cells. As to the kind of experiment: In vivo Multiple Myeloma (MM) assay (Assay 8). Also noted: species or system Mice. The conditions noted are these: 50 mg/kg every 3 days, subcutaneous oil depot. As for the experimental part:
Assay 8) In vivo Multiple Myeloma (MM) assay. Mice were inoculated with at two sites each with 3×10^6 luciferase expressing OPM2 cells suspended in 50 μL of growth medium and 50 μL of Matrigel basement membrane matrix (Becton Dickenson; Bedford, Mass.). Tumors were injected subcutaneously in the upper and lower flanks of the mice and allowed to establish for 2 weeks. After 2 weeks, a test compound or control vehicle was administered in a subcutaneous oil depot at a dose of 50 mg/kg every 3 days.
Tumors were measured using bioluminescence imaging on the Xenogen IVIS 200. Mice received intra-peritoneal injections of 200 μL of D-luciferin at 3.75 mg/mL in sterile PBS. Mice were then anesthetized with isofluorane and imaged 15 minutes post-injection of luciferin. Quantification of tumor size was performed using the Living Image™ software.
MM Xenograft murine model. Mice were inoculated with at two sites each with 3×10^6 luciferase expressing OPM2 cells suspended in 50 μL of growth medium and 50 μL of Matrigel basement membrane matrix (Becton Dickenson; Bedford, Mass.). Tumors were injected subcutaneously in the upper and lower flanks of the mice and allowed to establish for 2 weeks. […]
Tumors were measured using bioluminescence imaging on the Xenogen IVIS 200. […] Quantification of tumor size was performed using the Living Image™ software. […]

For data set [6], the system named is SHIP−/− bone marrow derived macrophages. As to the kind of experiment: LPS stimulation of SHIP−/− bone marrow derived macrophages. Format: cell-based, mice. The conditions noted are these: SHIP−/− cells, 15 μM, 10 ng/mL LPS 2 h. As for the experimental part: (§2) Bone marrow cells were aspirated from 4 to 8 week old C57B16×129Sv mixed background mice and SHIP and SHIP cells prepared as described previously. Bone marrow derived macrophages from SHIP^+/+ and SHIP^−/− mice were obtained and maintained in IMDM supplemented with 10% FCS, 150 μM MTG, 2% C127 cell conditioned medium as a source of macrophage colony stimulating factor (M-CSF) (macrophage medium)
LPS stimulation of macrophages. For the analysis of LPS-stimulated TNFα production, 2×10^5 cells were plated the night before in 24 well plates in macrophage medium. The next day, the medium was changed and AQX-016A or carrier was added to cells at the indicated concentrations for 30 min prior to the addition of 10 ng/mL LPS. Supernatants were collected for TNFα determination by ELISA (BD Biosciences, Mississauga, ON, Canada). For analysis of intracellular signaling, 2×10^6 cells were plated the night before in 6 cm tissue culture plates. The next day, the cells were cultured in macrophage medium without M-CSF for 1 hr at 37° C. and then pretreated with AQX-016A or carrier for 30 min prior to the addition of 10 ng/mL LPS for 15 min. Cells were washed with 4° C. […]
The target specificity and biological efficacy of AQX-016A were assessed by comparing AQX-016A's effects on PI3K-regulated processes in primary SHIP^+/+ vs SHIP^−/− macrophages and mast cells. […]

In data set [7] the test system is SHIP+/+ bone marrow derived macrophages. Briefly: LPS stimulation of SHIP+/+ bone marrow derived macrophages. Format: cell-based, mice. The conditions noted are these: SHIP+/+ cells, 15 μM, 10 ng/mL LPS 2 h. As for the experimental part:
as §2
LPS stimulation of macrophages. For the analysis of LPS-stimulated TNFα production, 2×10^5 cells were plated the night before in 24 well plates in macrophage medium. The next day, the medium was changed and AQX-016A or carrier was added to cells at the indicated concentrations for 30 min prior to the addition of 10 ng/mL LPS. Supernatants were collected for TNFα determination by ELISA (BD Biosciences, Mississauga, ON, Canada). For analysis of intracellular signaling, 2×10^6 cells were plated the night before in 6 cm tissue culture plates. The next day, the cells were cultured in macrophage medium without M-CSF for 1 hr at 37° C. and then pretreated with AQX-016A or carrier for 30 min prior to the addition of 10 ng/mL LPS for 15 min. Cells were washed with 4° C. PBS and resuspended in lysis buffer (50 mM Hepes, 2 mM EDTA, 1 mM NaVO4, 100 mM NaF, 50 mM NaPPi and 1% NP40) supplemented with Complete Protease Inhibitor Cocktail (Roche, Montreal, Canada). Lysates were rocked at 4° C. for 30 min and clarified by centrifuging 20 min at 12000×g. Lysates were then made 1× in Laemmli's buffer, boiled 2 min and loaded onto 7.5% SDS polyacrylamide […]. Immunoblot analysis for phospho PKB (Cell Signalling, Mississauga, Ont), SHIP and actin (Santa Cruz, Santa Cruz, Calif.) were carried out as described previously.
The target specificity and biological efficacy of AQX-016A were assessed by comparing AQX-016A's effects on PI3K-regulated processes in primary SHIP^+/+ vs SHIP^−/− macrophages and mast cells. […] LPS stimulation of macrophages is associated with a PIP3-dependent release of pro-inflammatory mediators such as TNFα. […]

In the case of `Cc1cc(O)c(O)c2c1[C@]1(C)CCC3C(C)(C)CCC[C@]3(C)[C@H]1C2` (stereo partly drawn) [AQX-016A], the “Assay Number 2: Macrophage TNF-α production” value in the data set with J774.1a macrophage cells [1] is listed as “+”. Moreover, the PKB phosphorylation result in the data set on LNCaP cells is “no effect”. In the data set with J774.1a macrophage cells [2], the “Assay Number 3: Macrophage NO” value is reported as “+”. The “Assay Number 5: Mouse acute cutaneous anaphylaxis model” value in [3] is recorded as “+”. The “peripheral blood cell counts or bone marrow progenitor numbers” value in data set [4] was “do not significantly affect”. In addition, the “Assay Number 7: In vitro Multiple Myeloma (MM) assay” value with MM cell lines is reported as “+”. In [5], the “Assay Number 8: In vivo Multiple Myeloma (MM) assay” value is listed as “+”.

Turning to `O=c1cc(N2CCOCC2)oc2c(-c3ccccc3)cccc12` [LY294002, reference compound], the “suppression of TNFα production” value in data set [6] and in data set [7] was “up to −40%” throughout.

The values are drawn from US20110263539A1, “SHIP 1 MODULATOR COMPOUNDS” (THE UNIVERSITY OF BRITISH COLUMBIA, priority 2006, published 2011).
